Data as given in patent US7033996B2, “Method for the treatment of vitamin D related disease” (University of Medicine & Dentistry of New Jersey, priority 2001, dated 2006).
Entries after “also recorded” stand apart in the source; their conditions may differ.

B1: C/EBPβ: CCAATT enhancer binding protein β, a transcription factor, supplied by pMEX C/EBPβ expression vector (protein, listed as Homo sapiens)
chain: APAPAPASSGQHHDFLSDLFSDDYGGKNCKKPAEYGYVSLGRLGAAKGAHPPPPPPPPPAELKAEPGFEPADCKRKEEAGAPGGGAGMAAGFPYALRAGSSGSLSTSSSSSPPGTPSPADAKAPPTACYAGAGPAPSQVKSKAKKTVRRERNNIAVRKSRDKAKMRNLETQHKVLELTAENERLQKKVEQLSRELSPEPLLASSGHC

What was measured:
C/EBPβ mRNA = test: Time course of mRNA induction by Northern blot in UMR osteoblastic cells; type: cell-based; settings: time course 0–24 h
24(OH)ase mRNA = test: as above; type: cell-based; settings: time course 0–24 h
C/EBPβ protein = test: Western blot of C/EBPβ protein in primary murine osteoblasts; type: cell-based
Description: Induction of C/EBPβ protein is examined by Western blot using nuclear extracts (antibody from Santa Cruz).

C/EBPβ = test: Northern analysis verifying C/EBPβ induction in kidney and osteoblastic cells; type: cell-based
hVDR promoter = test: PKA mediated hVDR promoter (-1500/+60) luciferase transcription with cotransfected C/EBPβ; type: cell-based, human; settings: JEG cells, 2 μg VDR promoter, 1 μg PKA expression vector, 5 μg C/EBPβ
Description: FIG. 2 is an illustration of C/EBPβ enhancement of PKA mediated transcriptional activation of hVDR. 2 μg of the VDR promoter (−1500/+60) cotransfected in JEG cells with 1 μg of PKA expression vector in the presence or absence of 5 μg C/EBPβ.
cAMP or PTH induced enhancement of 24(OH)ase transcription is due at least in part to an upregulation of VDR. Since two putative C/EBPβ sites have been reported in the hVDR promoter (at −1490 and at −920; 143) the determination of the effect of C/EBPβ on VDR promoter activity is important. We have isolated the hVDR promoter fragment −1500/+60 by PCR and ligated it into the PGL-2 luciferase vector and found in our studies that C/EBPβ enhances PKA mediated transcription of the VDR (FIG. 2).

rat 24(OH)ase promoter = test: 1,25(OH)2D3 induced 24(OH)ase promoter transcription with cotransfected C/EBPβ; settings: COS cells cotransfected with hVDR and C/EBPβ, 1,25(OH)2D3 for 24 h

Molecule | first significant induction of C/EBPβ mRNA after treatment (C/EBPβ mRNA) [h] | first significant induction of 24(OH)ase mRNA after treatment (24(OH)ase mRNA) [h] | induction of C/EBPβ protein by Western blot (C/EBPβ protein) | induction of C/EBPβ by Northern analysis (C/EBPβ) | effect of C/EBPβ on PKA mediated transcription of the VDR (hVDR promoter) | effect of C/EBPβ on 1,25(OH)2D3 induced 24(OH)ase transcription (rat 24(OH)ase promoter)
C=C1/C(=C\C=C2/CCC[C@]3(C)[C@@H]([C@H](C)CCCC(C)(C)O)CC[C@@H]23)C[C@@H](O)C[C@@H]1O [1,25(OH)2D3, 1,25-dihydroxyvitamin D3] | 3 | 9 | induction | induction | – | –
B1 | – | – | – | – | enhances | markedly enhanced; also recorded: enhanced transcriptional response
